Results on 20 molecules are retold here after patent publication US11684616B2, “Azalactam compounds as HPK1 inhibitors” (PFIZER INC., priority 2020, dated 2023).

For assay [1], the target named is human full-length autophosphorylated recombinant HPK1 (Homo sapiens (Human), UniProt Q92918). Kind of assay: HPK1 biochemical enzyme assay (chelation-enhanced fluorescence, CHEF). The following applies: 0.5 nM HPK1, 45 μM ATP, Morrison fit. How it is done: HPK1 Biochemical Enzyme Assay
HPK1 enzyme inhibition was measured by using the fluorescence-based chelation-enhanced fluorescence (CHEF) method (1), and by using a proprietary fluorescent peptide substrate, in which a cysteine residue is alkylated with a sulfonamido-oxine-based derivative to afford an amino acid termed C-Sox (CSx). […] Initial reaction velocities were determined by following the peptide fluorescence (λex=360 nm, λem=500 nm) at 30° C. for 15 min in a Tecan M1000 plate reader (Tecan Group Ltd., Mannedorf, Zurich, Switzerland).
Production of Autophosphorylated Full-Length Recombinant HPK1
The DNA sequence encoding full-length human HPK1 (Genbank NM_001042600.2) was synthesized at GenScript and contained a limited number of silent base changes to eliminate certain restriction endonuclease enzyme recognition sites, and fused to a DNA sequence encoding a Tobacco Etch Virus (TEV)-cleavable N-terminal polyhistidine purification tag. A recombinant baculovirus was prepared by using the Bac-to-Bac method (InVitrogen) and was used to infect 9 L of Sf21 insect cells. All purification steps were carried out at 4° C. Cells containing recombinant HPK1 were lysed in 50 mM HEPES-NaOH, pH 7.5, 250 mM NaCl, 1 mM tris(2-carboxyethyl)phosphine (TCEP), 10 μM leupeptin (Sigma), 10 μM E-64 (Sigma), and one ‘EDTA-free’ protease inhibitor tablet (Roche) per 75 mL buffer, centrifuged at 15,000×g for 1 h and the supernatant passed over 5 mL of ProBond IMAC resin (InVitrogen). After washing, HPK1 was eluted with 12.5 mL of 50 mM HEPES-NaOH, pH 7.5, 400 mM NaCl, 250 mM imidazole-HCl pH 7.5, 1 mM TCEP, 2 μM leupeptin, and 2 μM E-64. The eluted HPK1 was dialyzed overnight against 0.8 L of 50 mM HEPES-NaOH, pH 7.5, 400 mM NaCl, 20 mM imidazole-HCl pH 7.5, 1 mM TCEP, 2 μM leupeptin, 2 μM E-64, 2 mM ATP-NaOH pH 7.3, 5 mM MgCl2 and 1 mg TEV (this step simultaneously allows for reduction of the imidazole concentration in preparation for the subsequent reverse IMAC chromatography step, removal of the polyhistidine purification tag by TEV protease, and autophosphorylation of HPK1 in the presence of MgATP). The de-tagged and autophosphorylated HPK1 was adjusted to 40 mM imidazole-HCl, pH 7.5, and passed through a 10 mL column of ProBond resin similarly equilibrated. […] The peak fractions containing HPK1 were pooled and concentrated to approximately 2.5 mL by using a centrifugal concentrator (Millipore). The concentrated HPK1 was adjusted to 20% (v/v) glycerol by the addition of 50% (v/v) glycerol, resulting in a final formulation of 25 mM HEPES-NaOH pH 7.5, 250 mM NaCl, 0.25 mM TCEP and 20% (v/v) glycerol. […] Aliquots of the enzyme were flash frozen in liquid nitrogen and stored at −80° C. The final product contains a glycine-serine extension at the N-terminus of the full-length protein, as a result of the cloning strategy.

Assay [2] relates to Phospho-SLP-76 (Ser376) in Jurkat cells. Kind of assay: Phospho-SLP-76 (Ser376) HTRF assay in anti-CD3 stimulated Jurkat cells. The class given is cell-based. Conditions: Homo sapiens, Jurkat, 30 min pre-treatment, anti-CD3 stimulation 15 min, read-out: pSLP76 IC50. How it is done: Cell Based Assays Phospho-SLP-76 (Ser376) Homogeneous Time Resolved Fluorescence (HTRF) Assay
Jurkat cells were seeded at 90,000 cells/well in 90 uL of RPMI1640 growth medium containing 10% FBS and incubated at 37° C. with 5% CO2 overnight. The following day, compounds were serially diluted from a 10 mM top dose for an 11-point 3-fold dilution curve in DMSO. Compounds were intermediately diluted 1:100 into growth media prior to diluting 1:10 on cells for final concentration 10 μM to 0.1 nM in 0.1% DMSO. After 30 min pre-treatment with compounds, the cells were stimulated using 200 μg/mL of F(ab)2 complexed anti-CD3 (clone UCTH1) for 15 min at 37° C. with 5% CO2. Stimulation was stopped with ice cold PBS and cells were harvested by centrifugation before lysis in Cisbio lysis buffer (Cisbio, Bedford, Mass.). Lysates were transferred to white, low-volume plates containing anti-phospho-SLP-76-Cryptate plus anti-phospho-SLP-76-d2 HTRF antibodies and incubated overnight at room temperature protected from light according to the manufacturer's protocol (Cisbio, Bedford, Mass.). HTRF was measured on a Perkin Elmer Envision and IC50 values were calculated by concentration-response curve fitting utilizing four-parameter nonlinear regression analyses.
(Time-resolved FRET reads energy transfer from a long-lived donor to a nearby acceptor.)

Sequence of human full-length autophosphorylated recombinant HPK1 (Q92918 other isoform, or with tags, fused parts or gaps): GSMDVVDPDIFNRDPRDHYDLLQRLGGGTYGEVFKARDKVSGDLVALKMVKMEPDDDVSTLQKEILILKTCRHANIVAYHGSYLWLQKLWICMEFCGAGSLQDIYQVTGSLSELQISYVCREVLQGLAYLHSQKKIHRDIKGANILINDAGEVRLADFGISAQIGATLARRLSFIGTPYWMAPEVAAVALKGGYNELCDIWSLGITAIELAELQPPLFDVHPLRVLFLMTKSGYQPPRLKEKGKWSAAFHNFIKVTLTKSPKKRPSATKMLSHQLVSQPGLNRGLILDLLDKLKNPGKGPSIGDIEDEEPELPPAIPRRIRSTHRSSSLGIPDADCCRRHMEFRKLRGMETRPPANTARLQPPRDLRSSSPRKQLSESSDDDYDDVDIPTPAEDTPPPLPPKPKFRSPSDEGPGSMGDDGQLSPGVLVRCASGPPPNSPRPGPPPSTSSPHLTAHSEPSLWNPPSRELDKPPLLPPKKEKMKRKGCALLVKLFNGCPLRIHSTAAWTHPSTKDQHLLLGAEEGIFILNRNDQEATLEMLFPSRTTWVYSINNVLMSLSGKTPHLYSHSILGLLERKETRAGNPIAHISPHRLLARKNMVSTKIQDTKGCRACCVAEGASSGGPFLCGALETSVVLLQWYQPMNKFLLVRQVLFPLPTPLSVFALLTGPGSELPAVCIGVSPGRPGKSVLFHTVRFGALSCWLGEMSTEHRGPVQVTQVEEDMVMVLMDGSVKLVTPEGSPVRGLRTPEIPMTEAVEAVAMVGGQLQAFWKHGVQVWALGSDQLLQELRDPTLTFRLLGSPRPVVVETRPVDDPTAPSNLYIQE

The Ki is a dissociation constant, usually derived from enzyme kinetics or from competition with a known ligand. For orientation: IC50 means the concentration that gives 50% inhibition. As for `CCCn1cnnc1-c1cccc(N2Cc3c(cc(N4CCC[C@H]4C)nc3[C@H](C)N)C2=O)n1` (single isomer, unassigned) [Example 102], in assay [1], the Ki was determined as 0.11 nM. Further, the 50% inhibitory concentration (IC50) in assay [2] worked out at 107 nM.
As to `CCn1c(C)nnc1-c1cccc(N2Cc3c(cc(N4CCC[C@H]4C)nc3[C@@H](C)NC)C2=O)n1` (single isomer, unassigned) [Example 107], the Ki in assay [1] turned out to be 1.02 nM. Further, the half-maximal inhibitory concentration (IC50) in assay [2] stood at 140 nM.
In the case of `CCn1c(C)nnc1-c1cccc(N2Cc3c(cc(N4CCC[C@H]4C)nc3[C@H](C)NC)C2=O)n1` (single isomer, unassigned) [Example 108], the inhibitory constant (Ki) in assay [1] was 0.61 nM. Also, in assay [2], the IC50 was 84 nM.
On to `CCn1cnnc1-c1cccc(N2Cc3c(cc(N4CCC[C@H]4C)nc3[C@H](C)NC)C2=O)n1` (single isomer, unassigned) [Example 109], for which the inhibition constant Ki in assay [1] is 0.31 nM. The IC50 in assay [2] was found to be 61 nM.
Regarding `CCn1cnnc1-c1cccc(N2Cc3c(cc(N4CCC[C@H]4C)nc3[C@@H](C)NC)C2=O)n1` (single isomer, unassigned) [Example 110], the Ki in assay [1] turned out to be 0.09 nM. For the same molecule, the concentration for half-maximal inhibition (IC50) in assay [2] is 42 nM.
For the molecule `CCCn1cnnc1-c1cccc(N2Cc3c(cc(C4(C)CC4)nc3[C@@H](C)N)C2=O)n1` (single isomer, unassigned) [Example 117, 4-[(1ξ)-1-aminoethyl]-6-(1-methyl-cyclopropyl)-2-[6-(4-propyl-4H-1,2,4-triazol-3-yl)pyridin-2-yl]-2,3-dihydro-1H-pyrrolo[3,4-c]pyridin-1-one], the inhibitory constant (Ki) in assay [1] came out at 1.02 nM. The IC50 in assay [2] was 270 nM.
On the same counts, the results for `CCCn1cnnc1-c1cccc(N2Cc3c(cc(C4(C)CC4)nc3[C@H](C)N)C2=O)n1` (single isomer, unassigned) [Example 118, 4-[(1ξ)-1-aminoethyl]-6-(1-methyl-cyclopropyl)-2-[6-(4-propyl-4H-1,2,4-triazol-3-yl)pyridin-2-yl]-2,3-dihydro-1H-pyrrolo[3,4-c]pyridin-1-one] are 1.5 nM and 324 nM.
Turning to `CC[C@@H](N)c1nc(C2(C)CC2)cc2c1CN(c1cccc(-c3nncn3CC)n1)C2=O` (single isomer, unassigned) [Example 119, 4-[(1ξ)-1-aminopropyl]-2-[6-(4-ethyl-4H-1,2,4-triazol-3-yl)pyridin-2-yl]-6-(1-methylcyclo-propyl)-2,3-dihydro-1H-pyrrolo[3,4-c]pyridin-1-one], in assay [1], the Ki stood at 0.9 nM. Besides, the concentration for half-maximal inhibition (IC50) in assay [2] was 165 nM.
On to `CC[C@H](N)c1nc(C2(C)CC2)cc2c1CN(c1cccc(-c3nncn3CC)n1)C2=O` (single isomer, unassigned) [Example 120, 4-[(1ξ)-1-aminopropyl]-2-[6-(4-ethyl-4H-1,2,4-triazol-3-yl)pyridin-2-yl]-6-(1-methylcyclo-propyl)-2,3-dihydro-1H-pyrrolo[3,4-c]pyridin-1-one], for which the Ki in assay [1] turned out to be 2.97 nM. In addition, the IC50 in assay [2] came out at 531 nM.
For the molecule `CCCn1cnnc1-c1cccc(N2Cc3c(cc(C4(C)CC4)nc3[C@H](N)CC)C2=O)n1` (single isomer, unassigned) [Example 121, 4-[(1ξ)-1-aminopropyl]-6-(1-methylcyclo-propyl)-2-[6-(4-propyl-4H-1,2,4-triazol-3-yl)pyridin-2-yl]-2,3-dihydro-1H-pyrrolo[3,4-c]pyridin-1-one], the Ki in assay [1] came to 4.12 nM. For the same molecule, the IC50 in assay [2] was 553 nM.
For the molecule `CCCn1cnnc1-c1cccc(N2Cc3c(cc(C4(C)CC4)nc3[C@@H](N)CC)C2=O)n1` (single isomer, unassigned) [Example 122, 4-[(1ξ)-1-aminopropyl]-6-(1-methylcyclo-propyl)-2-[6-(4-propyl-4H-1,2,4-triazol-3-yl)pyridin-2-yl]-2,3-dihydro-1H-pyrrolo[3,4-c]pyridin-1-one], the inhibition constant (Ki) in assay [1] amounted to 0.78 nM. Further, the concentration for half-maximal inhibition (IC50) in assay [2] amounted to 354 nM.
`CCN(C)c1cc2c(c([C@H](C)N)n1)CN(c1cccc(-c3nnc(C)n3CC)n1)C2=O` (single isomer, unassigned) [Example 128, 4-[(1ξ)-1-aminoethyl]-6-[ethyl(methyl)amino]-2-[6-(4-ethyl-5-methyl-4H-1,2,4-triazol-3-yl)pyridin-2-yl]-2,3-dihydro-1H-pyrrolo[3,4-c]pyridin-1-one]: the inhibitory constant (Ki) in assay [1] turned out to be 1.03 nM. In addition, the IC50 in assay [2] is 194 nM.
As to `CCN(C)c1cc2c(c([C@@H](C)N)n1)CN(c1cccc(-c3nncn3CC)n1)C2=O` (single isomer, unassigned) [Example 129, 4-[(1ξ)-1-aminoethyl]-6-[ethyl(methyl)amino]-2-[6-(4-ethyl-4H-1,2,4-triazol-3-yl)pyridin-2-yl]-2,3-dihydro-1H-pyrrolo[3,4-c]pyridin-1-one], the inhibition constant (Ki) in assay [1] amounted to 0.28 nM. Also, the IC50 in assay [2] stood at 97 nM.
As for `CCN(C)c1cc2c(c([C@H](C)N)n1)CN(c1cccc(-c3nncn3CC)n1)C2=O` (single isomer, unassigned) [Example 130, 4-[(1ξ)-1-aminoethyl]-6-[ethyl(methyl)amino]-2-[6-(4-ethyl-4H-1,2,4-triazol-3-yl)pyridin-2-yl]-2,3-dihydro-1H-pyrrolo[3,4-c]pyridin-1-one], the Ki in assay [1] stood at 0.4 nM. For the same molecule, in assay [2], the IC50 is 77 nM.
On to `CCCn1c(C)nnc1-c1cccc(N2Cc3c(cc(N4CCC[C@H]4C)nc3[C@@H](C)N)C2=O)n1` (single isomer, unassigned) [Example 135], for which the Ki in assay [1] is 0.37 nM. In assay [2], the IC50 is 143 nM.
As to `CCCn1c(C)nnc1-c1cccc(N2Cc3c(cc(N4CCC[C@H]4C)nc3[C@H](C)N)C2=O)n1` (single isomer, unassigned) [Example 136], in assay [1], the Ki was determined as 0.22 nM. In addition, the half-maximal inhibitory concentration (IC50) in assay [2] stood at 90 nM.
As for `CCCn1c(C)nnc1-c1cccc(N2Cc3c(cc(N(C)C(C)C)nc3[C@@H](C)N)C2=O)n1` (single isomer, unassigned) [Example 148, 4-[(1ξ)-1-aminoethyl]-6-[methyl (propan-2-yl)amino]-2-[6-(5-methyl-4-propyl-4H-1,2,4-triazol-3-yl)pyridin-2-yl]-2,3-dihydro-1H-pyrrolo[3,4-c]pyridin-1-one], the Ki in assay [1] is 0.4 nM. For the same molecule, the half-maximal inhibitory concentration (IC50) in assay [2] stood at 96 nM.
In the same order, the values of `CCCn1c(C)nnc1-c1cccc(N2Cc3c(cc(N(C)C(C)C)nc3[C@H](C)N)C2=O)n1` (single isomer, unassigned) [Example 149, 4-[(1ξ)-1-aminoethyl]-6-[methyl (propan-2-yl)amino]-2-[6-(5-methyl-4-propyl-4H-1,2,4-triazol-3-yl)pyridin-2-yl]-2,3-dihydro-1H-pyrrolo[3,4-c]pyridin-1-one] are 0.6 nM and 171 nM.
On to `CCn1cnnc1-c1cccc(N2Cc3c(cc(N4CCC[C@H]4C)nc3[C@H](C)N)C2=O)n1` (single isomer, unassigned) [Example 150], for which the inhibition constant Ki in assay [1] is 0.11 nM. Besides, the half-inhibitory concentration (IC50) in assay [2] was 59 nM.
For `CCn1cnnc1-c1cccc(N2Cc3c(cc(N4CCC[C@H]4C)nc3[C@@H](C)N)C2=O)n1` (single isomer, unassigned) [Example 151], the Ki in assay [1] is 0.12 nM. Besides, the IC50 in assay [2] was 33 nM.
